US20100021936A1, “Sensor for Spores” (priority 2007, published 2010)

Columns and labels:
[1] = system: B. megaterium QM B1551 "receptorless" spore; format: cell-based, Bacillus megaterium
[2] = system: antibody-immobilised spores; format: cell-based
[3] = system: Bacillus megaterium QM B1551 spores; format: cell-based
[4] = system: CwlJ knock-out strain of Bacillus megaterium; format: cell-based

SMILES	germination response of receptorless spores [1]	germination response by micrographs [2]	concentration of Ca-DPA at which spores germinate [3] [mM]	germination in response to exogenous Ca-DPA [4]
C[C@H](N)C(=O)O [L-alanine]	lost the ability to respond	transition from phase bright spores to phase dark	–	–
O=C(O)c1cccc(C(=O)O)n1 [Ca-DPA, dipicolinic acid]	–	–	~30	does not germinate
